Assay [1] concerns full-length mouse PEDF (GAL4-BD-fusion). Put plainly: Yeast two-hybrid interaction of AD-fusion peptides with BD-fusion WT-PEDF. To be noted: yeast diploids cultured at 25 °C for 5 days. Format: cell-based. The source says: To determine whether the peptides with the obtained sequences bind to PEDF in the same manner as the native PEDF-binding sequence, α1(I)930–938, we examined independent two-hybrid interactions of the three peptides and their mutants in which Arg at Yaa4 was substituted with Ala. […] We also examined the binding of the peptides to collagen-binding-null or heparin-binding-null PEDF mutants that we already reported ([33]). […] Meanwhile, the interaction was not observed for the peptide with the 1-2 sequence, probably because Cys at Xaa9 led to weaker interaction with PEDF than Leu ([15]). […] By contrast, the interactions were maintained using heparin-binding-null PEDF mutant (PEDF R148A) as a bait protein.
The bait and prey plasmids were transformed into S. cerevisiae Y2H gold (MATa, trp1-901, leu2-3, 112, ura3-52, his3-200, gal4Δ, gal80Δ, LYS2::GAL1UAS-Gal1TATA-His3, GAL2UAS-Gal2TATA-Ade2, URA3::MEL1UAS-Mel1TATA, AUR1-C MEL1; TaKaRa) and Y187 strains (MATα, ura3-52, his3-200, ade2-101, trp1-901, leu2-3, 112, gal4Δ, gal80Δ, met-, URA3::GAL1UAS-Gal1TATA-LacZ, MEL1; TaKaRa), in accordance with the manufacturer’s protocol. They were incubated on SD/-Trp and SD/-Leu plates, respectively, at 30 °C for 4–5 days for the selection of transformed clones.
Diploids were prepared by mixing them on yeast peptone dextrose adenine (YPDA) plates. After incubation at 30 °C overnight, they were spread on minimal-medium double-dropout (DDO; SD/-Leu-Trp) plates and incubated at 30 °C for 2–3 days for the selection of diploids.
(§1) Y2H interaction was detected by incubation of the generated diploids on minimal-medium quadruple-dropout (QDO; SD/-Leu-Trp-His-Ade) plates with 40 μg/ml X-α-Gal (FUJIFILM Wako Pure Chemical, Osaka, Japan) and 200 ng/ml aureobasidin A (TaKaRa) (QDOGA) plates and incubated for 3–5 days. Positivity for interaction was recorded upon the generation of yeast colonies that appeared blue.

Assay [2] concerns HSP47 (GAL4-BD-fusion). Put plainly: Yeast two-hybrid interaction with BD-fusion HSP47 (indicator of triple-helical conformation). Format: cell-based, mouse.
Description: We expressed (Pro-Gly-Pro)-repeating peptides with a repeat number of 10, 13, or 23, as GAL4-AD-fusion proteins in yeast cells. The lengths of (Pro-Gly-Pro)10, (Pro-Gly-Pro)13, and (Pro-Gly-Pro)23 correspond to those of the N-terminal host, the guest plus the N-terminal host, and the guest plus the N- and C-hosts in the above peptide design (Fig. 1B), respectively. The peptides with fewer (Pro-Gly-Pro)-repeats have lower thermal stability of the triple helices ([19]). We set three different culture temperatures, 16, 30, and 37 °C, with the expectation of identifying the binding of BD-fusion HSP47 to these three peptides with GAL4-AD by the yeast two-hybrid system (Fig. 3). The mated yeast cells were selected by His and Ade auxotrophy in the presence of aureobasidin and X-α-Gal. When HSP47 interacts with the peptides, GAL4-BD and GAL4-AD are brought into proximity to activate the transcription of reporter genes (AUR1-C, ADE2, HIS3, and MEL1). The reporter gene expression allows yeast cells to survive on the plates and turn blue by degrading X-α-Gal. The interaction between HSP47 (bait) and peptides (prey) was detected by the growth of blue colonies on the selection plates. […] HSP47 bound only to (Pro-Gly-Pro)23 in yeast cells at 37 °C. At 30 °C, HSP47 bound to (Pro-Gly-Pro)13 as well as (Pro-Gly-Pro)23, but not to (Pro-Gly-Pro)10. At 16 °C, HSP47 bound to all three of the peptides.
A gene fragment encoding full-length mature mouse PEDF and HSP47 with EcoRI and SalI sites was obtained by PCR amplification, as described in the literature ([15], [45]). The DNA fragments and a pGBKT7 vector were ligated after digestion with EcoRI and SalI and transformed into E. coli HST08 competent cells (TaKaRa, Shiga, Japan). To prepare plasmids encoding PEDF R148A and D255N mutants, inverse PCR was performed with the above GAL4-BD-fused PEDF in a pGBKT7 vector as a template by Primestar MAX (TaKaRa). The PCR product was ligated with Gibson assembly reagents (New England Biolabs, Hertfordshire, UK), followed by transformation into HST08 competent cells. […]
as §1

Where no end group is shown, it is not given here.

These results are taken from paper PMC11533527, “A yeast two-hybrid system to obtain triple-helical ligands from combinatorial random peptide libraries” (The Journal of Biological Chemistry, 2024).

Turning to “(Pro-Gly-Pro)10-Lys-Gly-His-Arg-Gly-Phe-Ser-Gly-Leu-(Pro-Gly-Pro)10 [α1(I)930–938]”, the “Two-hybrid interaction with BD-fusion WT-PEDF (blue colonies on QDOGA plates)” value in assay [1] is on record as “observed”. As for “(Pro-Gly-Pro)10 [GAL4-AD-fusion (Pro-Gly-Pro)10]”, the “Two-hybrid interaction with HSP47” value in assay [2] (cultured at 30 °C for 3 days) is on record as “not”. Turning to “RGVRGFEGC [1-2, GAL4-AD-fusion peptide clone from the random library]”, in assay [1], the “Two-hybrid interaction with BD-fusion WT-PEDF (blue colonies on QDOGA plates)” value is “not observed”. Same read-out and setting: in the case of “RGHRGFLGL [1-3, GAL4-AD-fusion peptide clone from the random library]” it was “observed”. On to “(Pro-Gly-Pro)13 [GAL4-AD-fusion (Pro-Gly-Pro)13]”, for which, in assay [2] (cultured at 30 °C for 3 days), the “Two-hybrid interaction with HSP47” value is recorded as “bound”. “KGCRGLHGL [1-1, GAL4-AD-fusion peptide clone from the random library, flanked by (Pro-Gly-Pro)10 hosts]”: the “Two-hybrid interaction with BD-fusion WT-PEDF (blue colonies on QDOGA plates)” value in assay [1] is on record as “observed”. Turning to “(Pro-Gly-Pro)23 [GAL4-AD-fusion (Pro-Gly-Pro)23]”, the “Two-hybrid interaction with HSP47” value in assay [2] (cultured at 30 °C for 3 days) and in assay [2] (cultured at 37 °C for 3 days) was “bound” in each case.
